Here are results for two compounds from patent publication US9399037B2, “Triazinone compounds for treating diseases resulting from infestation with parasitic protozoans” (Bayer Intellectual Property GmbH, priority 1999, dated 2016).

In test [1] the test system is Neospora caninum. Put plainly: Anti-N. caninum total IgG in the serum by ELISA, prophylactically treated infected mice. The format is in vivo. As for the experimental part: (§1) Female Wt C57BL/6-mice, age at the time of treatment: 7½ weeks.
(§2) Neospora caninum tachyzoites were passaged through VERO cells, and isolated by column chromatography, and aliquots with concentrations of 2×10^6 parasites/100 μl were prepared in sterile PBS.
(§3) Pure toltrazuril active compound was made up as a stock solution with 50 mg/10 ml H2O+100 μl Cremophor. 0.5 mg of pure active compound were present Der application in 0.1 ml of this solution. In a mouse of 20 g, this corresponds to a use concentration of 25 mg/kg. The substances were administered perorally by gavage on 6 successive days, which corresponds to a total uptake of […].
(§4) Toltrazuril 2.5% formulated solution (100 ml solution contain: 2.50 g toltrazuril, 30.00 g triethanolamine, 80.70 g polyethylene glycol; the components are simply mixed): 6.25 ml of the 2.5% solution were diluted in 250 ml of water and administered to the mice on 6 successive days via the drinking water.
(§5) Four hours after the start of the prophylactic treatment, each mouse was infected with 2×10^6 parasite stages/100 μl sterile PBS.
14 days post-infection, the test mice were sacrificed using CO2. They were numbered randomly to maintain a random sequence during evaluation (blind evaluation). To obtain serum, blood was taken from the myocardium. The brain was dissected carefully, and one half was stored at −80° C. for the PCR analysis. The remainder was fixed in 4% paraformaldehyde/PBS for immunohistological studies (IFAT).
Anti-N. caninum total immunoglobulin G (IgG) was determined by ELISA following the method of Eperon et al., 1999, Parasite Immunology 21:225-236. Treated groups were compared with an uninfected and an infected control group. The positive control mouse was inoculated with a crude extract of N. caninum tachyzoites and subsequently infected with 10^6 N. caninum stages. The parasite-specific IgG values were particularly high in this mouse.
(ELISA stands for enzyme-linked immunosorbent assay.)

Test [2] has as its system Neospora caninum. Put plainly: Immunofluorescence test (IFAT) on brain sections of infected mice. The format is in vivo. Also on record: key: Score (−)=no tachyzoites; Score (+)=less than 10 tachyzoites; Score (++)=between 10 and 200 tachyzoites; Score (+++)=more than 200 parasites. As to conditions: brain sections of individual mice; 25 mg/kg/day p.o. on 6 successive days; day 14 p.i. As for the experimental part:
as §1, §2, §3, §4, §5
14 days post-infection, the test mice were sacrificed using CO2. They were numbered randomly to maintain a random sequence during evaluation (blind evaluation). […]
The entire sections were studied for the assessment. Any stages of the parasite present were counted, and the following scores were used: […]

Test [3] has as its system Neospora caninum. Put plainly: Neospora caninum-specific PCR on brain DNA of infected mice. The format is in vivo. As to conditions: prophylactic treatment, pure active compound 25 mg/kg/day p.o. Here is the method: as §1, §2, §3, §4, §5
14 days post-infection, the test mice were sacrificed using CO2. They were numbered randomly to maintain a random sequence during evaluation (blind evaluation). To obtain serum, blood was taken from the myocardium. The brain was dissected carefully, and one half was stored at −80° C. for the PCR analysis. […]

Test [4] relates to Neospora caninum. Put plainly: Testing substances on infected Neospora caninum cell cultures (VERO cell monolayer, microscopical assessment). Details: key: 0 = no effect; 1 = some effect; 2 = full action; T = cytotoxic. Conditions: 4 days after beginning of treatment, 5 days post-infection. The format is cell-based. Here is the method:
Neospora caninum is an obligatory intracellular parasite. VERO cells (African green monkey kidney cells, ATCC No.: CCL 81 Vero) were used as an aid to cause the parasite to reproduce under conditions capable of standardization and definition. Vero cells were grown in the following medium: 87% […] (ICN, 12-602-54) 10% FCS (fetal calf serum, ICN, 29-101-49) 1% 200 mM L-glutamine (ICN, 15-801-13) 1% sodium bicarbonate (ICN, 16-883-49) 1% penicillin/streptomycin (ICN, 16-700-49). Noninfected cultures were maintained and passaged in 25 cm^2 (Falcon, B 769031) and 75 cm^2 (Falcon, B 769051) tissue culture flasks. Vero cells were grown at 37° C. in a 5% CO2 atmosphere in a CO2 incubator (Heraeus) until a cell monolayer was obtained.
The following Neospora caninum isolates were used for the infection of cell cultures: NC-1 (canine isolate DUBEY (1988) and NC Swe B-1/9th passage (bovine isolate; National Veterinary Institute Uppsala, Sweden). The infection materials used were infected cell cultures from the nitrogen storage (see above) or purified tachyzoites of infected cultures (see below).
Neospora caninum was isolated from infected VERO or ED monolayers under sterile conditions. First, infected cell cultures were detached from the flask bottom using a spatula (Tec No Mara, 3010) and, using a 23-gauge cannula (Luer 23 Gx1, 0.6×25 mm) drawn into a 10 ml disposable syringe. During this procedure, host cells and tissue cysts contained therein were destroyed mechanically. The cell suspension was subsequently centrifuged for 7 minutes at 1 500 rpm (Varifuge 3.0, Heraeus), the supernatant was discarded, and the sample pellet was resuspended in precisely 2.5 ml of physiological phosphate buffer (PBS: 1 mM PO4, 12 mM NaCl, 0.87 mM KCL, pH 7.4). The next isolation step was performed using a Sephadex column (PD-10™/Sephadex G-25 M, Pharmacia Biotech, 17-0851). The column was first equilibrated with 25 ml of PBS, the sample volume was applied in 2.5 ml of PBS, and elution was then effected with 5 ml of PBS. […]

Test [5] concerns Neospora caninum. Conditions: experimentally infected mice, administered via the drinking water, cited from earlier work.
The test system of test [6] is Neospora caninum. As to conditions: dogs; treatment with sulfadiazine and clindamycin together; cited from earlier work.

Each structure is given as a SMILES string. Several values for one entry are separate records, joined by “and”; a condition that tells them apart may be missing. Identical values can stand only once. Like-named read-outs stand apart in the source and are kept apart here.

With `Cc1cc(-n2c(=O)[nH]c(=O)n(C)c2=O)ccc1Oc1ccc(SC(F)(F)F)cc1` [Toltrazuril, toltrazuril], the “OD mean (anti Neospora IgG in the serum)” value in the test on Neospora caninum [1] (group mean, 7 mice, 25 mg/kg/day p.o. on 6 successive days, day 14 p.i.) came to 0.1689. In addition, the “OD (anti Neospora IgG in the serum)” value in the test with Neospora caninum [1] (individual C57BL/6 mice, 25 mg/kg/day p.o. on 6 successive days from 4 h before infection, day 14 p.i., 25 mg/kg/day) was 0.338 and 0.271 and 0.056 and 0.066 and 0.18 and 0.103 and 0.168. For the same compound, the “concentration of Neospora caninum-specific IgG antibodies compared with infected and untreated control groups” value in the test with Neospora caninum [1] (mice, pure active compound 25 mg/kg/day p.o.) is given as “reduced concentration”. Moreover, the IFAT result in the test with Neospora caninum [2] is “−”. Moreover, the “mice PCR-negative in the group” value in the test on Neospora caninum [3] is listed as 4/7. Besides, the “Efficacy against Neospora caninum in VERO cells (assessment of monolayer)” value was 1 with Neospora caninum [4] (10 ppm), 2 with Neospora caninum [4] (25 ppm) and 2 with Neospora caninum [4] (50 ppm).

In the case of `Nc1ccc(S(=O)(=O)Nc2ncccn2)cc1` [sulfadiazine], the effectiveness of treatment entry in the test on Neospora caninum [5] (later start of the treatment) is reported as “without success”; with Neospora caninum [5] (start prior to infection, clinical symptoms prevented without parasitological recovery) it was “only effective when the treatment was started prophylactically”. Moreover, the success of treatment result with Neospora caninum [6] was “only has a chance of success when it starts very early”.
